Measurements reported in US12187683B2, “Benzoindazolone compound and intermediate thereof” (LMITO THERAPEUTICS INC., priority 2019, dated 2025).

Target: NQO1 (Homo sapiens, UniProt P15559)
Test: In vitro NQO1 enzyme activity assay (cytochrome C reduction, absorbance at 550 nm)
Format: biochemical
Details: NQO1 2 ng
Protocol: In order to evaluate the activity of synthesized compound in NQO1, the experiments were conducted as follows:
The synthesized compound was dissolved in DMSO to make a 10 mM stock solution, which was further diluted with DMSO to 250 μM so as to prepare a working solution. For experimental groups, the working solution of the compound was added to an enzyme reaction solution in which 50 μL of 1.54 mM Cytochrome C solution was added to 900 μL of 50 mM Tris-HCl (pH7.5) containing 0.14% BSA. For negative control groups, DMSO not containing the compound of the invention was added to the enzyme reaction solution as above. For each experimental and control group, 20 μL of 100 ng/mL NQO1 protein was added. Next, 10 μL of 20 mM NADH was added to bring up the volume to 1 mL. The change of absorbance was measured at 550 nm for 10 minutes using 1 mL cuvette. The kinetics of reaction was measured with the increase of absorbance as the cytochrome C was reduced at 550 nm over 10 minutes. The activity of NQO1 was measured by the amount of cytochrome C that is being reduced (nmol cytochrome C that was reduced/min/ug NQO1 protein).
Absorption coefficient of Cytochrome C: 21.1 (μmol/mL)^−1 cm^−1
Equipment=Cary 100 UV-Vis Spectrophotometer

[1] = Table 1, Compound 5 μM, control 196
[2] = Table 2, Compound 0.2 μM, control 96
[3] = Table 3, Compound 0.2 μM, control 74
[4] = Table 4, Compound 0.2 μM, control 10

Chain of NQO1 (P15559 whole entry, species assumed): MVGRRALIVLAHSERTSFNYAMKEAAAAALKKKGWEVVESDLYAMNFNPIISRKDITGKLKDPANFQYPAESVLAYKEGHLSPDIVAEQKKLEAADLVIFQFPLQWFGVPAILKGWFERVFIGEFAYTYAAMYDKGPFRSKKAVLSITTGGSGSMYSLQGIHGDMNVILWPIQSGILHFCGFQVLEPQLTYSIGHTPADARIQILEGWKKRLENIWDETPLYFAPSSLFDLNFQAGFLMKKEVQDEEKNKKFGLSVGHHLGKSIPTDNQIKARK

## O=C1C(=O)c2c(n(-c3ccccc3)[nH]c2=O)-c2ccccc21 [Compound 1, 1-phenyl-1H-benzo[g]indazol-3,4,5(2H)-trione]
[1]
  NQO1 activity (nmol of reduced Cytochrome C/min/μg NQO1 protein): 180 nmol of reduced Cytochrome C/min/μg NQO1 protein

## CC(C)Oc1nn(-c2ccccc2)c2c1C(=O)C(=O)c1ccccc1-2 [Compound 2, 3-isopropoxy-1-phenyl-1H-benzo[g]indazol-4,5-dione]
[2]
  NQO1 activity (nmol of reduced Cytochrome C/min/μg NQO1 protein): 3531 nmol of reduced Cytochrome C/min/μg NQO1 protein

## CC(C)n1c(=O)c2c(n1C)-c1ccccc1C(=O)C2=O [Compound 3, 2-isopropyl-1-methyl-1H-benzo[g]indazol-3,4,5(2H)-trione]
[1]
  NQO1 activity (nmol of reduced Cytochrome C/min/μg NQO1 protein): 3066 nmol of reduced Cytochrome C/min/μg NQO1 protein

## Cn1c(=O)c2c(n1-c1ccccc1)-c1ccccc1C(=O)C2=O [Compound 5, 2-methyl-1-phenyl-1H-benzo[g]indazol-3,4,5(2H)-trione]
[1]
  NQO1 activity (nmol of reduced Cytochrome C/min/μg NQO1 protein): 2602 nmol of reduced Cytochrome C/min/μg NQO1 protein

## COc1nn(-c2ccccc2)c2c1C(=O)C(=O)c1ccccc1-2 [Compound 6, 3-methoxy-1-phenyl-1H-benzo[g]indazol-4,5-dione]
[1]
  NQO1 activity (nmol of reduced Cytochrome C/min/μg NQO1 protein): 7706 nmol of reduced Cytochrome C/min/μg NQO1 protein
[2]
  NQO1 activity (nmol of reduced Cytochrome C/min/μg NQO1 protein): 3782 nmol of reduced Cytochrome C/min/μg NQO1 protein
[3]
  NQO1 activity (nmol of reduced Cytochrome C/min/μg NQO1 protein): 2905 nmol of reduced Cytochrome C/min/μg NQO1 protein
[4]
  NQO1 activity (nmol of reduced Cytochrome C/min/μg NQO1 protein): 3261 nmol of reduced Cytochrome C/min/μg NQO1 protein

## CCn1c(=O)c2c(n1-c1ccccc1)-c1ccccc1C(=O)C2=O [Compound 7, 2-ethyl-1-phenyl-1H-benzo[g]indazol-3,4,5(2H)-trione]
[2]
  NQO1 activity (nmol of reduced Cytochrome C/min/μg NQO1 protein): 2246 nmol of reduced Cytochrome C/min/μg NQO1 protein

## CCOc1nn(-c2ccccc2)c2c1C(=O)C(=O)c1ccccc1-2 [Compound 8, 3-ethoxy-1-phenyl-1H-benzo[g]indazol-4,5-dione]
[2]
  NQO1 activity (nmol of reduced Cytochrome C/min/μg NQO1 protein): 3768 nmol of reduced Cytochrome C/min/μg NQO1 protein

## CC(C)Cn1c(=O)c2c(n1-c1ccccc1)-c1ccccc1C(=O)C2=O [Compound 9, 2-isobutyl-1-phenyl-1H-benzo[g]indazol-3,4,5(2H)-trione]
[2]
  NQO1 activity (nmol of reduced Cytochrome C/min/μg NQO1 protein): 2474 nmol of reduced Cytochrome C/min/μg NQO1 protein

## CC(C)COc1nn(-c2ccccc2)c2c1C(=O)C(=O)c1ccccc1-2 [Compound 10, 3-isobutoxy-1-phenyl-1H-benzo[g]indazol-4,5-dione]
[2]
  NQO1 activity (nmol of reduced Cytochrome C/min/μg NQO1 protein): 3455 nmol of reduced Cytochrome C/min/μg NQO1 protein

## CC(C)CCn1c(=O)c2c(n1-c1ccccc1)-c1ccccc1C(=O)C2=O [Compound 11, 2-isopentyl-1-phenyl-1H-benzo[g]indazol-3,4,5(2H)-trione]
[2]
  NQO1 activity (nmol of reduced Cytochrome C/min/μg NQO1 protein): 2839 nmol of reduced Cytochrome C/min/μg NQO1 protein

## CC(C)CCOc1nn(-c2ccccc2)c2c1C(=O)C(=O)c1ccccc1-2 [Compound 12, 3-(isopentyloxy)-1-phenyl-1H-benzo[g]indazol-4,5-dione]
[2]
  NQO1 activity (nmol of reduced Cytochrome C/min/μg NQO1 protein): 2981 nmol of reduced Cytochrome C/min/μg NQO1 protein

## CC(C)n1c(=O)c2c(n1-c1ccccc1)-c1ccccc1C(=O)C2=O [Compound 13, 2-isopropyl-1-phenyl-1H-benzo[g]indazol-3,4,5(2H)-trione]
[2]
  NQO1 activity (nmol of reduced Cytochrome C/min/μg NQO1 protein): 2137 nmol of reduced Cytochrome C/min/μg NQO1 protein

## CC(C)n1c2c(c(=O)n1C)C(=O)C(=O)c1ccccc1-2 [Compound 16, 1-isopropyl-2-methyl-1H-benzo[g]indazol-3,4,5(2H)-trione]
[2]
  NQO1 activity (nmol of reduced Cytochrome C/min/μg NQO1 protein): 4441 nmol of reduced Cytochrome C/min/μg NQO1 protein

## COc1nn(C(C)C)c2c1C(=O)C(=O)c1ccccc1-2 [Compound 17, 1-isopropyl-3-methoxy-1H-benzo[g]indazol-4,5-dione]
[3]
  NQO1 activity (nmol of reduced Cytochrome C/min/μg NQO1 protein): 4488 nmol of reduced Cytochrome C/min/μg NQO1 protein

## COc1nn(-c2ccc(C(F)(F)F)cc2)c2c1C(=O)C(=O)c1ccccc1-2 [Compound 18, 3-methoxy-1-(4-(trifluoromethyl)phenyl)-1H-benzo[g]indazol-4,5-dione]
[2]
  NQO1 activity (nmol of reduced Cytochrome C/min/μg NQO1 protein): 4232 nmol of reduced Cytochrome C/min/μg NQO1 protein

## COc1nn(-c2ccc(F)cc2)c2c1C(=O)C(=O)c1ccccc1-2 [Compound 19, 1-(4-fluorophenyl)-3-methoxy-1H-benzo[g]indazol-4,5-dione]
[2]
  NQO1 activity (nmol of reduced Cytochrome C/min/μg NQO1 protein): 4303 nmol of reduced Cytochrome C/min/μg NQO1 protein

## Cn1c2c(c(=O)n1-c1ccccc1)C(=O)C(=O)c1ccccc1-2 [Compound 20, 1-methyl-2-phenyl-1H-benzo[g]indazol-3,4,5(2H)-trione]
[3]
  NQO1 activity (nmol of reduced Cytochrome C/min/μg NQO1 protein): 436 nmol of reduced Cytochrome C/min/μg NQO1 protein

## Cn1c(=O)c2c(n1-c1ccccc1)-c1ccc(F)cc1C(=O)C2=O [Compound 21, 7-fluoro-2-methyl-1-phenyl-1H-benzo[g]indazol-3,4,5(2H)-trione]
[3]
  NQO1 activity (nmol of reduced Cytochrome C/min/μg NQO1 protein): 1095 nmol of reduced Cytochrome C/min/μg NQO1 protein

## COc1nn(-c2ccccc2)c2c1C(=O)C(=O)c1cc(F)ccc1-2 [Compound 22, 7-fluoro-3-methoxy-1-phenyl-1H-benzo[g]indazol-4,5-dione]
[3]
  NQO1 activity (nmol of reduced Cytochrome C/min/μg NQO1 protein): 5360 nmol of reduced Cytochrome C/min/μg NQO1 protein

## COc1nn(-c2ccccc2)c2c1C(=O)C(=O)c1cc([N+](=O)[O-])ccc1-2 [Compound 23, 3-methoxy-7-nitro-1-phenyl-1H-benzo[g]indazol-4,5-dione]
[4]
  NQO1 activity (nmol of reduced Cytochrome C/min/μg NQO1 protein): 393 nmol of reduced Cytochrome C/min/μg NQO1 protein

## COc1nn(-c2ccccc2)c2c1C(=O)C(=O)c1cc(N)ccc1-2 [Compound 24, 7-amino-3-methoxy-1-phenyl-1H-benzo[g]indazol-4,5-dione]
[4]
  NQO1 activity (nmol of reduced Cytochrome C/min/μg NQO1 protein): 3739 nmol of reduced Cytochrome C/min/μg NQO1 protein

## COc1nn(-c2ccccc2)c2c1C(=O)C(=O)c1cc(Br)ccc1-2 [Compound 25, 7-bromo-3-methoxy-1-phenyl-1H-benzo[g]indazol-4,5-dione]
[4]
  NQO1 activity (nmol of reduced Cytochrome C/min/μg NQO1 protein): 1445 nmol of reduced Cytochrome C/min/μg NQO1 protein
